Data taken from PubChem BioAssay (NCI).
Values joined by “and” are separate entries in the source; they are usually repeats but may differ in a detail not shown here. Identical values can stand only once.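 These data come from cells grown in 96-well plates and exposed to compound for 48 hours at five concentrations. At the GI50, growth is halved. TGI denotes the concentration required for complete inhibition of growth.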

Tests used:
Assay in all cases: DTP human tumour cell line panel, 48 h
ACHN renal = test system: ACHN renal
HOP-62 NSCLC = test system: HOP-62 NSCLC
HOP-92 NSCLC = test system: HOP-92 NSCLC
IGROV1 ovarian = test system: IGROV1 ovarian
NCI-H522 lung = test system: NCI-H522 lung
NCI/ADR-RES ovarian = test system: NCI/ADR-RES ovarian
PC-3 prostate = test system: PC-3 prostate
RXF 393 renal = test system: RXF 393 renal
SF-268 CNS = test system: SF-268 CNS
UACC-62 melanoma = test system: UACC-62 melanoma

Row | SMILES | GI50 (ACHN renal) | TGI (ACHN renal) [µM] | GI50 (HOP-62 NSCLC) [µM] | TGI (HOP-62 NSCLC) [µM] | GI50 (HOP-92 NSCLC) | TGI (HOP-92 NSCLC) [µM] | GI50 (IGROV1 ovarian) | TGI (IGROV1 ovarian) [µM] | GI50 (NCI-H522 lung) | TGI (NCI-H522 lung) | GI50 (NCI/ADR-RES ovarian) | TGI (NCI/ADR-RES ovarian) | GI50 (PC-3 prostate) | TGI (PC-3 prostate) | GI50 (RXF 393 renal) | TGI (RXF 393 renal) | GI50 (SF-268 CNS) | TGI (SF-268 CNS) [µM] | GI50 (UACC-62 melanoma) | TGI (UACC-62 melanoma) [µM]
1 | Fc1cccc(COc2ccc(Nc3ncncc3C#Cc3ccccc3)cc2Cl)c1 | > 25 µM | > 25 | > 25 | > 25 | > 18.8 µM | > 25 | > 24 µM | > 25 | > 22.4 µM | > 25 µM | > 25 µM | > 25 µM | > 25 µM | > 25 µM | > 25 µM | > 25 µM | > 25 µM | > 25 | > 25 µM | > 25
2 | COc1ccc(C(=S)N2CCN(c3cccc(Cl)c3)CC2)cc1 | > 100 µM | > 100 | > 100 | > 100 | 17.2 µM | > 100 | 58.8 µM | > 100 | 15.3 µM | > 100 µM | 97 µM | > 100 µM | 38.6 µM | > 100 µM | > 100 µM | > 100 µM | > 100 µM | > 100 | 78.2 µM | > 100
3 | CCOc1ccc(S(=O)(=O)/N=C2\C=C(SCC(=O)O)C(=O)c3ccccc32)cc1 | 6.8 µM | 20.2 | 20.7 | 44.8 | 2.61 µM | 5.21 | 2.14 µM | 4.34 | 2.53 µM | 6.63 µM | 3.26 µM | 13.5 µM | 2.92 µM | 13.1 µM | 1.8 µM | 7.23 µM | 2.95 µM | 12.2 | 1.99 µM | 3.8
4 | CC(C)(C)c1cc(O)c(O)c(C(C)(C)C)c1 | 2.15 µM | 4.13 | 8.96 | 29 | 1.36 µM | 4.6 | 2.56 µM | 5.27 | 1.77 µM | 3.29 µM | 3.54 µM | 17.9 µM | 3.55 µM | 15.9 µM | 4.4 µM | 13.5 µM | 4.77 µM | 16.1 | 2.54 µM | 7.78
5 | C=C1C(O)C2CCC(C)(C)C(=O)C2=C(CC(C)C)C12CC2 (stereo not drawn) | 39.3 µM | > 100 | 76.6 | > 100 | 15 µM | 70.3 | > 100 µM | > 100 | 36.6 µM | > 100 µM | 45.4 µM | > 100 µM | 33.2 µM | > 100 µM | 53.1 µM | > 100 µM | 50.5 µM | > 100 | 90.8 µM | > 100
6 | CC(=O)Nc1cccc(-n2c(=O)n(C3CC3)c(=O)c3c(Nc4ccc(I)cc4F)n(C)c(=O)c(C)c32)c1 | 0.49 µM and 0.291 µM | > 79.5 | 0.0121 | > 50.7 | < 0.01 µM and 0.011 µM |  | 0.034 µM and 0.0221 µM | > 81.6 | 3.79 µM and > 2.33 µM | 22 µM and > 10 µM | 2.29 µM and > 10 µM | 40.6 µM and > 10 µM | 6.33 µM and > 10 µM | 46.3 µM and > 10 µM | 0.0661 µM and 0.148 µM | 13.1 µM and > 5.97 µM | 3.85 µM and > 6.08 µM | > 100 | < 0.01 µM and 0.00184 µM | 0.0182
7 | COc1cccc(/C=C/C(=O)c2cc3c(N)c(C(=O)Nc4ccccc4C)sc3nc2C)c1 | 0.894 µM | 1.86 | 1.12 | 2.57 | 0.823 µM | 2.72 | 1.03 µM | 2.44 | 1.07 µM | 3.38 µM | 1.51 µM | > 50 µM | 1.69 µM | 8.3 µM | 0.768 µM | 1.53 µM | 1.78 µM | 7.66 | 0.905 µM | 2
8 | COC(=O)C1OC(O[C@H]2CCC3(C)C(CCC4(C)C3CC=C3C5CC(C)(C)CCC5(C(=O)O)CC[C@]34C)C2(C)C)C(O)C(OC2OC(CO)C(O)C(O)C2O)C1O (stereo partly drawn) | 5.99 µM | 10.7 | 6.21 | 11.6 | 7.12 µM | 14.5 | 20.1 µM | > 33.3 | 10.5 µM | 29 µM | 7.24 µM | 13.5 µM | 6.43 µM | 11.8 µM | 11.3 µM | > 33.3 µM | 7.56 µM | 17.1 | 6.23 µM | 11.7
9 | COc1c(C2CC(=O)Nc3c2cnn3Cc2ccco2)cc2c(c1OC)OCO2 (stereo not drawn) | 0.833 µM | > 100 | 1.79 | > 100 | 0.424 µM | 98 | 1.73 µM | > 100 | 0.349 µM | 3.24 µM | 1.08 µM | > 100 µM | 0.559 µM | > 100 µM | 0.35 µM | > 19.7 µM | 1.58 µM | > 100 |  | > 100
10 | COc1cc2c3c(cccc3c1)C(=O)N(CCN1CCCC1)C2=O | 0.764 µM | > 100 | 2.1 | 5.27 | 1.55 µM | 4.98 | 2.66 µM | 6.78 | 2.3 µM | 5.78 µM | 2.25 µM | 8.04 µM | 2.91 µM | 11.9 µM | 1.41 µM | 3.54 µM | 2.48 µM | 9.06 | 1.79 µM | 3.71
11 | COc1cc2ncn(-c3cc(OCc4ccccc4Cl)c(C(N)=O)s3)c2cc1OC | 1.58 µM | > 25 | 0.217 | 7.15 | 3.8 µM | > 25 | 0.552 µM | > 25 | 0.13 µM | 1.13 µM | 0.22 µM | > 10.3 µM | 1 µM | > 25 µM | 0.102 µM | 4.22 µM | 0.187 µM | > 13 | 0.283 µM | > 25
12 | CC(C)(C)OC(=O)NC(Cc1ccccc1)C(=O)OCN1C(=O)C2C3C=CC(C2C1=O)C1C2C(=O)N(COC(=O)C(Cc4ccccc4)NC(=O)OC(C)(C)C)C(=O)C2C31 (stereo not drawn) |  | > 100 |  | > 100 |  | > 100 |  | 97.4 |  | 85 µM |  | > 100 µM |  | > 100 µM |  | > 64.2 µM |  | > 88.9 |  | > 100
